Measurements: ChEMBL document CHEMBL3351449, “Inhibition of FAAH, TRPV1, and COX2 by NSAID-serotonin conjugates” (Bioorg Med Chem Lett, 2014)
The source made the active and inactive calls. No cut-off for these calls is given here.

Key:
[1] = molecular target: T1, Fatty-acid amide hydrolase 1 (Homo sapiens) (UniProt O00519); experiment: Inhibition of human recombinant FAAH using AMC arachidonoyl amide as substrate assessed as residual activity at 50 uM by fluorescence assay
T1 sequence (whole entry): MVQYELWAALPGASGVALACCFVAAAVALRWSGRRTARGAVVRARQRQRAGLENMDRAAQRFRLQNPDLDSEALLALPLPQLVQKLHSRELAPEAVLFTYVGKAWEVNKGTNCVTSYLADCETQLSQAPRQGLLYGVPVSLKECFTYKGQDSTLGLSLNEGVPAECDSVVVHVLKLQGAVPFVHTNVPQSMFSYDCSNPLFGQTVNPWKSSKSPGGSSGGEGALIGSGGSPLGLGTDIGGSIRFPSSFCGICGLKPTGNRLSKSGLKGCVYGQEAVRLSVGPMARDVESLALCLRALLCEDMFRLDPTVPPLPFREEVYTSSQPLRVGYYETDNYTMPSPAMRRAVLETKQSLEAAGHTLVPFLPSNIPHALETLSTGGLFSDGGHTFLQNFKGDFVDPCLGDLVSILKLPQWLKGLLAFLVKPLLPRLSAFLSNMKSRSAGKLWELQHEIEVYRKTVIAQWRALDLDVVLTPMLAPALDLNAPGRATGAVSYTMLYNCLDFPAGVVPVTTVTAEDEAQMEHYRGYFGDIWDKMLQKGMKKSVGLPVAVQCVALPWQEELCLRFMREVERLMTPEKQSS

[2] = molecular target: T2, Prostaglandin G/H synthase 2 (Homo sapiens, UniProt P35354); experiment: Inhibition of human recombinant COX2 assessed as inhibition of ADHP to fluorescent resorufin conversion by fluorescence assay
T2 sequence (P35354 whole entry): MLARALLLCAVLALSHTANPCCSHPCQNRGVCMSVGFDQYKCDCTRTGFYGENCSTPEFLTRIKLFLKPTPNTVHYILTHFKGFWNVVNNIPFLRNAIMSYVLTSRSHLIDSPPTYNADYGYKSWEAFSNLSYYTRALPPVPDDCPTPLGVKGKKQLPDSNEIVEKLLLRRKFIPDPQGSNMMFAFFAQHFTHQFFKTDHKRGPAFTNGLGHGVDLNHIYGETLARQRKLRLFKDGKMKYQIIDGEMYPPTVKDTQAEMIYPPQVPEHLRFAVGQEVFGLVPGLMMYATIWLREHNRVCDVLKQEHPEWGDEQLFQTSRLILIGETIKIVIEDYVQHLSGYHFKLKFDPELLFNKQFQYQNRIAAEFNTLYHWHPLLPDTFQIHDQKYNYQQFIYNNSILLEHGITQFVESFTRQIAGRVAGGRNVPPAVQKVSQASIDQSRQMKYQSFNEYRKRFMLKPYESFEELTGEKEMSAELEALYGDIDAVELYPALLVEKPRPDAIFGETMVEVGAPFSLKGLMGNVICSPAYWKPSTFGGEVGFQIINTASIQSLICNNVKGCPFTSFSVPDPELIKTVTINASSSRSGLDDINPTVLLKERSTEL

[3] = molecular target: T3, Prostaglandin G/H synthase 2 (Homo sapiens) (UniProt P35354); experiment: Inhibition of human recombinant COX2 assessed as inhibition of ADHP to fluorescent resorufin conversion measured as residual activity at 10 uM by fluorescence assay
T3 sequence (whole entry): T2 sequence (P35354 whole entry)

[4] = molecular target: T4, Transient receptor potential cation channel subfamily V member 1 (Homo sapiens, UniProt Q8NER1); experiment: Inhibition of human TRPV1 overexpressed in BEAS-2B cells assessed as calcium flux after 30 mins by Fluo-4 AM fluorescence assay; assay type: cell-based
T4 sequence (Q8NER1 whole entry): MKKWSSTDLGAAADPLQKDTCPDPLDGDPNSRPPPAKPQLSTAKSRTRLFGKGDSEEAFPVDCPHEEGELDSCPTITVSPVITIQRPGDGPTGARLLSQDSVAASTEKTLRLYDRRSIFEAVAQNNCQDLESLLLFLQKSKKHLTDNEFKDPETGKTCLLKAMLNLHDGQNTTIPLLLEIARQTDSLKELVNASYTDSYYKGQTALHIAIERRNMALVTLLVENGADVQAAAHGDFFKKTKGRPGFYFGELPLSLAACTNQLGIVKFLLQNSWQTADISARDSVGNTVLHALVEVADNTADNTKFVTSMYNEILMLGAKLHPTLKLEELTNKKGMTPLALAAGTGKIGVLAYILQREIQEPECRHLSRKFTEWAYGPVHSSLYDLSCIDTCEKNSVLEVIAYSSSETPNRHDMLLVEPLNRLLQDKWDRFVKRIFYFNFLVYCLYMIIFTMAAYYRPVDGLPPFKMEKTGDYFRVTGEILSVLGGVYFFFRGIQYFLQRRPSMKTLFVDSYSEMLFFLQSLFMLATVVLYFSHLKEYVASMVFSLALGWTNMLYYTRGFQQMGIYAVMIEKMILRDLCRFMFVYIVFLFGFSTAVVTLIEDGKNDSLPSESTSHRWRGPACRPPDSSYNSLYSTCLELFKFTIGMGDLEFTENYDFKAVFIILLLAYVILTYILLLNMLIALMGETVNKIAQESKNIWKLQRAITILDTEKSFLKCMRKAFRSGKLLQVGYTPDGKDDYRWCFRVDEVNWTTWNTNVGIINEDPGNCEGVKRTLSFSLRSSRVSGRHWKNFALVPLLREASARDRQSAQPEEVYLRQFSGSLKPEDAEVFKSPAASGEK

[5] = molecular target: T4, Transient receptor potential cation channel subfamily V member 1; experiment: Inhibition of human TRPV1 overexpressed in BEAS-2B cells assessed as residual activity at 250 uM after 30 mins by Fluo-4 AM fluorescence assay; assay type: cell-based
[6] = molecular target: T4, Transient receptor potential cation channel subfamily V member 1; experiment: Inhibition of human TRPV1 overexpressed in BEAS-2B cells assessed as residual activity at 50 uM after 30 mins by Fluo-4 AM fluorescence assay; assay type: cell-based
[7] = molecular target: T1, Fatty-acid amide hydrolase 1 (Homo sapiens); experiment: Inhibition of human recombinant FAAH using AMC arachidonoyl amide as substrate assessed as residual activity at 10 uM by fluorescence assay
[8] = molecular target: T5, Fatty-acid amide hydrolase 1 (Homo sapiens, UniProt O00519); experiment: Inhibition of human recombinant FAAH using AMC arachidonoyl amide as substrate by fluorescence assay
T5 sequence (O00519 whole entry): T1 sequence (whole entry)

[9] = molecular target: T4, Transient receptor potential cation channel subfamily V member 1; experiment: Inhibition of human TRPV1 overexpressed in BEAS-2B cells at 10 uM after 30 mins by Fluo-4 AM fluorescence assay; assay type: cell-based
[10] = molecular target: T4, Transient receptor potential cation channel subfamily V member 1; experiment: Stimulation of human TRPV1 overexpressed in BEAS-2B cells at >10 uM after 30 mins by Fluo-4 AM fluorescence assay; assay type: cell-based

Row | Compound | Activity [3] [%] | IC50 [4] [µM] | Activity [5] [%] | Activity [6] [%] | Activity [7] [%] | also measured
1 | COc1ccc2cc([C@H](C)C(=O)NCCc3c[nH]c4ccc(O)cc34)ccc2c1 | 48 | 13 |  |  |  | Activity [1]: 73%; IC50 [2]: 18 µM
2 | O=C(O)Cc1ccccc1Nc1c(Cl)cccc1Cl |  |  | 49 | 61 |  | 
3 | O=C(c1ccccc1)c1ccc2n1CCC2C(=O)O (stereo unspecified) |  |  | 110 | 96 |  | 
4 | CC(C(=O)O)c1cccc(C(=O)c2ccccc2)c1 (stereo unspecified) |  |  | 108 | 103 |  | 
5 | CC(C(=O)NCCc1c[nH]c2ccc(O)cc12)c1cccc(C(=O)c2ccccc2)c1 (stereo unspecified) | 51 | 45 |  |  | 88 | 
6 | O=C(c1ccccc1)c1ccc2n1CCC2C(=O)NCCc1c[nH]c2ccc(O)cc12 (stereo unspecified) | 43 | 70 |  |  | 98 | 
7 | CC(C(=O)O)c1cccc(Oc2ccccc2)c1 (stereo unspecified) |  |  | 121 | 104 |  | 
8 | CCCCC/C=C\C/C=C\C/C=C\C/C=C\CCCC(=O)NCCc1c[nH]c2ccc(O)cc12 | 66 | 10 |  |  | 78 | IC50 [8]: 16 µM; IC50 [2]: 5 µM
9 | COc1ccc2c(c1)c(CC(=O)NCCc1c[nH]c3ccc(O)cc13)c(C)n2C(=O)c1ccc(Cl)cc1 | 7 | 48 |  |  | 94 | 
10 | CC(=O)Oc1ccccc1C(=O)O |  |  | 91 | 84 |  | 
11 | CC(C)Cc1ccc(C(C)C(=O)O)cc1 (stereo unspecified) |  |  | 112 | 103 |  | 
12 | CC(C(=O)O)c1ccc(-c2ccccc2)c(F)c1 (stereo unspecified) |  |  | 108 | 103 |  | 
13 | O=C(NCCc1c[nH]c2ccc(O)cc12)c1ccccc1Nc1cccc(C(F)(F)F)c1 | 38 | 10 |  |  | 107 | inhibition [9]: 40%; Activity [10]: Active
14 | CC(C(=O)NCCc1c[nH]c2ccc(O)cc12)c1ccc(-c2ccccc2)c(F)c1 (stereo unspecified) | 38 | 9 |  |  | 85 | IC50 [8]: 15 µM; IC50 [2]: 8 µM
15 | CC(C(=O)NCCc1c[nH]c2ccc(O)cc12)c1cccc(Oc2ccccc2)c1 (stereo unspecified) | 49 | 8 |  |  |  | Activity [1]: 105%; IC50 [2]: 7 µM
16 | COc1ccc2cc([C@H](C)C(=O)O)ccc2c1 |  |  | 109 | 107 |  | 
17 | O=C(NCCc1c[nH]c2ccc(O)cc12)c1ccccc1O | 51 | 70 |  |  | 101 | 
18 | O=C(O)c1ccccc1Nc1cccc(C(F)(F)F)c1 |  |  | 36 | 66 |  | 
19 | COc1ccc2c(c1)c(CC(=O)O)c(C)n2C(=O)c1ccc(Cl)cc1 |  |  | 82 | 98 |  | 
20 | CC(=O)Oc1ccccc1C(=O)NCCc1c[nH]c2ccc(O)cc12 | 60 | 203 |  |  | 99 | 
21 | CC(C)Cc1ccc(C(C)C(=O)NCCc2c[nH]c3ccc(O)cc23)cc1 (stereo unspecified) | 42 | 6 |  |  | 75 | IC50 [8]: 5 µM; IC50 [2]: 10 µM
22 | O=C(Cc1ccccc1Nc1c(Cl)cccc1Cl)NCCc1c[nH]c2ccc(O)cc12 | 43 | 19 |  |  | 98 | 
